In one data set the test system is ERAP2. Nature of the data set: ERAP2 expression in PBMC of RRMS patients over the course of GA treatment (exon arrays, PCR). The format is in vivo, human. Conditions: baseline, 3, 12 and 24 months of treatment (FIG. 4). How it is done:
Relapsing-remitting multiple sclerosis patients were treated with GA. Whole blood was taken from patients at four time points including baseline (baseline, month 3, month 12 and month 24). Peripheral blood mononuclear cells (PBMCs) were cryopreserved and RNA was isolated for gene expression analysis (FIG. 3).
Gene expression analysis was performed using Affymetrix Human Exon 1.0 ST expression arrays. Preprocessing was performed with an integrated three-step approach: background correction, normalization […] implemented in the Affymetrix Expression Console. Batch effects normalization was performed with the removeBatchEffect function from limma R package.
PCR analysis was performed in order to validate the expression of ERAP2 in Responder populations as compared to Non-Responders and Healthy Controls.

Data set [1] deals with RRMS subjects. The note with it: over 9 months of treatment, 20 mg group (17 lesions under placebo); cited from earlier work.
For data set [2], the system named is RRMS subjects. Conditions: largest controlled study, cited from earlier work.
The conditions of data set [3]: daily standard dose of 20 mg; cited from earlier work.

Take Glatiramer acetate [GA]: in the data set with ERAP2, the “ERAP2 expression change by treatment” value was “not modified”. In the data set on RRMS subjects [1], the “median cumulative number of Gd-enhancing lesions” value is given as 11 lesions. The relapse rate reduced in the data set on RRMS subjects [2] (GA 20 mg vs placebo) is listed as 32%. Further, the relapse rate in the data set on RRMS subjects [2] (under GA 20 mg (1.98 under placebo)) was 1.34. Also, the tolerability result in data set [3] is listed as “generally well tolerated”.

(Values after US9617596B2, “Biomarkers predictive for clinical response for glatiramer acetate” (TEVA PHARMACEUTICAL INDUSTRIES, LTD., priority 2012, dated 2017).)
